Experimental findings from patent US9730914B2, “3,5-diaminopyrazole kinase inhibitors” (Axikin Pharmaceuticals, Inc., priority 2014, dated 2017) are described below.

Molecules are shown by their SMILES.

The target of experiment [1] is T1, kinase domain protein of RC kinase (RCK) (Homo sapiens, UniProt Q56UN5).
T1 construct: made in house; host or cells: E. coli BL21-derived host (T7 phage) or HEK-293
T1 sequence (Q56UN5 1061-1324 limits assumed): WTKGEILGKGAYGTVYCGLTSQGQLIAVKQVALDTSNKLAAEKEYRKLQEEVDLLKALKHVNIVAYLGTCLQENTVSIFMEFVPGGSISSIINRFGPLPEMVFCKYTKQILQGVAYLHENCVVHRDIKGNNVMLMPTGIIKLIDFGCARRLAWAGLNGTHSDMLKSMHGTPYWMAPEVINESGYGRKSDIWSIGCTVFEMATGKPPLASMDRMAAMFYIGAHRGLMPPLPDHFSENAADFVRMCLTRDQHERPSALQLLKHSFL
Briefly: Kinase competition binding assay (Kd, qPCR readout), RC kinase. The following applies: Kd class, read-out: RCK Activity Level. Summed up:
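Competition binding: DNA-tagged kinase (T7 phage or HEK-293-expressed) plus immobilized biotinylated ligand beads and compound, 1 h at room temperature, 1% DMSO. Bead-bound kinase eluted and quantified by qPCR. Kd from 11-point 3-fold dilution, top 30,000 nM, retested lower if below 0.5 nM.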

Experiment [2] addresses T2, JAK2 (Homo sapiens, UniProt O60674).
T2 construct: made in house; host or cells: E. coli BL21-derived host (T7 phage) or HEK-293
Briefly: Kinase competition binding assay (Kd, qPCR readout), JAK2. As to conditions: for Kd: Kd class, JAK2, read-out: JAK2 Activity Level; for RCK:JAK2 selectivity ratio: ratio Kd (JAK2): Kd(RCK). Summed up: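 Competition binding: DNA-tagged kinase (T7 phage or HEK-293-expressed), immobilized biotinylated ligand beads and compound in SeaBlock/PBS/Tween/DTT buffer, 1 hour at room temperature; bound kinase eluted and quantified by qPCR. Kd from 11-point 3-fold dilution, top 30,000 nM typically, final DMSO 1%.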

For experiment [3], the target named is T3, JAK3 (Homo sapiens, UniProt P52333).
T3 construct: made in house; host or cells: E. coli BL21-derived host (T7 phage) or HEK-293
T3 sequence (P52333 811-1124 limits assumed): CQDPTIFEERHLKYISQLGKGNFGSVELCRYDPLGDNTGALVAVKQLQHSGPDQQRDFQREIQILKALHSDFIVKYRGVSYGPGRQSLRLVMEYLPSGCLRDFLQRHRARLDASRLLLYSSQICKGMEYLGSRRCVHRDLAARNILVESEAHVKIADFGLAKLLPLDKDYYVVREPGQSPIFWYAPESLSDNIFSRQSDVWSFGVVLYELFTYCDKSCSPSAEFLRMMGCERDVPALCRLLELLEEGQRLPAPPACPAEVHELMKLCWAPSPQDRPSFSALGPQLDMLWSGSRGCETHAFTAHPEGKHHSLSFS
Put plainly: Kinase competition binding assay (Kd, qPCR readout), JAK3. As to conditions: for Kd: Kd class, JAK3, read-out: JAK3 Activity Level; for RCK:JAK3 selectivity ratio: ratio Kd (JAK3): Kd (RCK). Summed up: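 Competition binding in which kinase, either T7 phage-tagged or HEK-293-expressed and DNA-tagged, was exposed to immobilized biotinylated ligand and test compound for 1 h at room temperature. Bead-bound kinase was eluted and quantified by qPCR. Kd came from 11-point 3-fold dilutions, top concentration 30,000 nM and 1% DMSO, repeated lower if below 0.5 nM.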

T2 sequence (O60674 840-1132 limits assumed): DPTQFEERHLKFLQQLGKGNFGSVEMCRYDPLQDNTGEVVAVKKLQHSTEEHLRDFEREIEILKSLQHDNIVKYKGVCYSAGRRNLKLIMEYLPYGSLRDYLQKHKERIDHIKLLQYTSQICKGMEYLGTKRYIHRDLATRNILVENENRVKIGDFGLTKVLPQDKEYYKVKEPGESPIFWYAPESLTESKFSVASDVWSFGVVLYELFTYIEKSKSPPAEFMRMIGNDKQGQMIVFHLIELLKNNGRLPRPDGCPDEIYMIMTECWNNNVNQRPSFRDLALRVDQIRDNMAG

On to `COc1ccccc1C(=O)Nc1ccc(Nc2n[nH]c(NCc3cc(C)c(O)c(C)c3)c2C(N)=O)cc1` [Compound 55, 5-((4-hydroxy-3,5-dimethylbenzyl)amino)-3-((4-(2-methoxybenzamido)phenyl)amino)-1H-pyrazole-4-carboxamide], for which, in experiment [1], the Kd is 100 to 1000 nM. In experiment [2], the Kd is more than 1000 nM and the “RCK:JAK2 selectivity ratio” value is on record as “B (B represents 10<Kd(JAK2): Kd (RCK)<100)”. In experiment [3], the Kd is more than 1000 nM and the “RCK:JAK3 selectivity ratio” value is recorded as “B (B represents 10<Kd (JAK3): Kd (RCK)<100)”.
In the case of `COc1cccc(C(=O)Nc2ccc(Nc3n[nH]c(NCc4cc(C)c(O)c(C)c4)c3C(N)=O)cc2)c1` [Compound 56, 5-((4-hydroxy-3,5-dimethylbenzyl)amino)-3-((4-(3-methoxybenzamido)phenyl)amino)-1H-pyrazole-4-carboxamide], the Kd in experiment [1] is 100 to 1000 nM. In experiment [2], the Kd is more than 1000 nM and the “RCK:JAK2 selectivity ratio” value is “B (B represents 10<Kd(JAK2): Kd (RCK)<100)”. In experiment [3], the Kd was more than 1000 nM and the “RCK:JAK3 selectivity ratio” value is listed as “A (A represents Kd (JAK3): Kd (RCK)>100)”.
For the molecule `COc1ccc(C(=O)Nc2ccc(Nc3n[nH]c(NCc4cc(C)c(O)c(C)c4)c3C(N)=O)cc2)cc1` [Compound 57, 5-((4-hydroxy-3,5-dimethylbenzyl)amino)-3-((4-(4-methoxybenzamido)phenyl)amino)-1H-pyrazole-4-carboxamide], the Kd in experiment [1] fell in the range of 50 to 100 nM. In experiment [2], the Kd is more than 1000 nM and the “RCK:JAK2 selectivity ratio” value was “A (A represents Kd (JAK2): Kd (RCK)>100)”. In experiment [3], the Kd was more than 1000 nM and the “RCK:JAK3 selectivity ratio” value was “A (A represents Kd (JAK3): Kd (RCK)>100)”.
With `Cc1cc(CNc2[nH]nc(Nc3ccc(N4CCC(C(C)C)CC4)cc3)c2C(N)=O)cc(C)c1O` [Compound 58, 5-((4-hydroxy-3,5-dimethylbenzyl)amino)-3-((4-(4-isopropylpiperidin-1-yl)phenyl)amino)-1H-pyrazole-4-carboxamide], the Kd in experiment [1] was 100 to 1000 nM; in experiment [2] it was more than 1000 nM; in experiment [3], more than 1000 nM. Also, the “RCK:JAK2 selectivity ratio” value in experiment [2] is on record as “B (B represents 10<Kd(JAK2): Kd (RCK)<100)”. Besides, the “RCK:JAK3 selectivity ratio” value in experiment [3] is “B (B represents 10<Kd (JAK3): Kd (RCK)<100)”.
Regarding `Cc1cc(CNc2[nH]nc(Nc3ccc(N4CCOCC4=O)cc3)c2C(N)=O)cc(C)c1O` [Compound 59, 5-((4-hydroxy-3,5-dimethylbenzyl)amino)-3-((4-(3-oxomorpholino)phenyl)amino)-1H-pyrazole-4-carboxamide], the Kd in experiment [1] was 100 to 1000 nM. In addition, in experiment [2], the Kd was more than 1000 nM and the “RCK:JAK2 selectivity ratio” value is on record as “B (B represents 10<Kd(JAK2): Kd (RCK)<100)”. Besides, in experiment [3], the Kd is more than 1000 nM and the “RCK:JAK3 selectivity ratio” value is on record as “B (B represents 10<Kd (JAK3): Kd (RCK)<100)”.
As for `Cc1cc(CNc2[nH]nc(Nc3ccc(CC#N)cc3)c2C(N)=O)cc(C)c1O` [Compound 61, 3-((4-(cyanomethyl)phenyl)amino)-5-((4-hydroxy-3,5-dimethylbenzyl)amino)-1H-pyrazole-4-carboxamide], the Kd in experiment [1], in experiment [2] and in experiment [3] was more than 1000 nM each time. Moreover, the “RCK:JAK2 selectivity ratio” value in experiment [2] is given as “C (C represents 1<Kd (JAK2): Kd (RCK)<10)”. Further, in experiment [3], the “RCK:JAK3 selectivity ratio” value was “C (C represents 1<Kd (JAK3): Kd (RCK)<10)”.
Turning to `Cc1cc(CNc2[nH]nc(Nc3ccc(NC(=O)c4ccc(C(F)(F)F)cc4)cc3)c2C(N)=O)cc(C)c1O` [Compound 62, 5-((4-hydroxy-3,5-dimethylbenzyl)amino)-3-((4-(4-(trifluoromethyl)benzamido)phenyl)amino)-1H-pyrazole-4-carboxamide], the Kd in experiment [1] is 100 to 1000 nM; in experiment [2] it was more than 1000 nM; in experiment [3] it was more than 1000 nM. Besides, in experiment [2], the “RCK:JAK2 selectivity ratio” value is listed as “B (B represents 10<Kd(JAK2): Kd (RCK)<100)”. For the same molecule, the “RCK:JAK3 selectivity ratio” value in experiment [3] is on record as “B (B represents 10<Kd (JAK3): Kd (RCK)<100)”.
On to `Cc1cc(CNc2[nH]nc(Nc3ccc(N4CCC(C)CC4)cc3)c2C(N)=O)cc(C)c1O` [Compound 63, 5-((4-hydroxy-3,5-dimethylbenzyl)amino)-3-((4-(4-methylpiperidin-1-yl)phenyl)amino)-1H-pyrazole-4-carboxamide], for which the Kd in experiment [1] was 100 to 1000 nM. In experiment [2], the Kd was more than 1000 nM and the “RCK:JAK2 selectivity ratio” value was “B (B represents 10<Kd(JAK2): Kd (RCK)<100)”. Further, in experiment [3], the Kd was more than 1000 nM and the “RCK:JAK3 selectivity ratio” value was “B (B represents 10<Kd (JAK3): Kd (RCK)<100)”.
`Cc1cc(CNc2[nH]nc(Nc3ccc(-n4ccnc4)cc3)c2C(N)=O)cc(C)c1O` [drawing 179, reference compound]: the Kd in experiment [1], in experiment [2] and in experiment [3] was less than 50 nM in each case.
For `COc1ccc(Nc2n[nH]c(NCc3cc(C)c(O)c(C)c3)c2C(N)=O)cc1` [drawing 180, reference compound], the Kd in experiment [1], in experiment [2] and in experiment [3] was less than 50 nM in each case.
On to `Cc1cc(CNc2[nH]nc(Nc3cccc(Cl)c3)c2C(N)=O)cc(C)c1O` [reference compound], for which, in experiment [1], the Kd was more than 1000 nM. Further, in experiment [2], the Kd is more than 1000 nM and the “RCK:JAK2 selectivity ratio” value was “C (C represents 1<Kd (JAK2): Kd (RCK)<10)”. Besides, in experiment [3], the Kd was more than 1000 nM and the “RCK:JAK3 selectivity ratio” value is reported as “C (C represents 1<Kd (JAK3): Kd (RCK)<10)”.
With `NC(=O)c1c(Nc2ccc(S(N)(=O)=O)cc2)n[nH]c1NCc1ccc(O)cc1` [reference compound], the Kd in experiment [1] is less than 50 nM. Further, in experiment [2], the Kd is less than 50 nM and the “RCK:JAK2 selectivity ratio” value is “D (D represents Kd(JAK2): Kd (RCK)<1)”. In experiment [3], the Kd is less than 50 nM and the “RCK:JAK3 selectivity ratio” value is “D (D represents Kd (JAK3): Kd(RCK)<1)”.
With `NC(=O)c1c(Nc2ccc(N3CCC(N4CCCC4)CC3)nc2)n[nH]c1NCc1ccc(O)cc1` [reference compound], the Kd in experiment [1], in experiment [2] and in experiment [3] was less than 50 nM each time. For the same molecule, the “RCK:JAK2 selectivity ratio” value in experiment [2] was “D (D represents Kd(JAK2): Kd (RCK)<1)”. The “RCK:JAK3 selectivity ratio” value in experiment [3] is “C (C represents 1<Kd (JAK3): Kd (RCK)<10)”.
On to `CN(C)c1ccc(Nc2n[nH]c(NCc3ccc(O)cc3)c2C(N)=O)cc1` [reference compound], for which, in experiment [1], the Kd is 100 to 1000 nM. In addition, in experiment [2], the Kd is less than 50 nM and the “RCK:JAK2 selectivity ratio” value was “D (D represents Kd(JAK2): Kd (RCK)<1)”. Moreover, in experiment [3], the Kd fell in the range of 100 to 1000 nM and the “RCK:JAK3 selectivity ratio” value was “C (C represents 1<Kd (JAK3): Kd (RCK)<10)”.
Regarding `NC(=O)c1c(Nc2ccc(CN3CCOCC3)cc2)n[nH]c1NCc1ccc(O)cc1` [reference compound], the Kd in experiment [1] is less than 50 nM. Further, in experiment [2], the Kd is less than 50 nM and the “RCK:JAK2 selectivity ratio” value is recorded as “D (D represents Kd(JAK2): Kd (RCK)<1)”. Also, in experiment [3], the Kd was less than 50 nM and the “RCK:JAK3 selectivity ratio” value is listed as “D (D represents Kd (JAK3): Kd(RCK)<1)”.
Turning to `COc1cccc(Nc2n[nH]c(NCc3ccc(O)cc3)c2C(N)=O)c1` [reference compound], the Kd in experiment [1], in experiment [2] and in experiment [3] was less than 50 nM each time. In experiment [2], the “RCK:JAK2 selectivity ratio” value is “D (D represents Kd(JAK2): Kd (RCK)<1)”. The “RCK:JAK3 selectivity ratio” value in experiment [3] is “D (D represents Kd (JAK3): Kd(RCK)<1)”.
Turning to `NC(=O)c1c(Nc2ccc(NC(=O)c3ccc(F)cc3)cc2)n[nH]c1NCc1ccc(O)cc1` [reference compound], the Kd in experiment [1] is less than 50 nM. In experiment [2], the Kd is less than 50 nM and the “RCK:JAK2 selectivity ratio” value is reported as “C (C represents 1<Kd (JAK2): Kd (RCK)<10)”. For the same molecule, in experiment [3], the Kd is less than 50 nM and the “RCK:JAK3 selectivity ratio” value is reported as “C (C represents 1<Kd (JAK3): Kd (RCK)<10)”.
In the case of `NC(=O)c1c(Nc2ccc(-c3cc[nH]n3)cc2)n[nH]c1NCc1ccc(O)cc1` [reference compound], the Kd in experiment [1] is less than 50 nM. Further, in experiment [2], the Kd was less than 50 nM and the “RCK:JAK2 selectivity ratio” value was “D (D represents Kd(JAK2): Kd (RCK)<1)”. Further, in experiment [3], the Kd is less than 50 nM and the “RCK:JAK3 selectivity ratio” value was “C (C represents 1<Kd (JAK3): Kd (RCK)<10)”.
For the molecule `COc1ccccc1C(=O)Nc1ccc(Nc2n[nH]c(NCc3ccc(O)cc3)c2C(N)=O)cc1` [reference compound], in experiment [1], the Kd is less than 50 nM. For the same molecule, in experiment [2], the Kd was less than 50 nM and the “RCK:JAK2 selectivity ratio” value is on record as “B (B represents 10<Kd(JAK2): Kd (RCK)<100)”. Further, in experiment [3], the Kd is less than 50 nM and the “RCK:JAK3 selectivity ratio” value is “B (B represents 10<Kd (JAK3): Kd (RCK)<100)”.
In the case of `COc1cccc(C(=O)Nc2ccc(Nc3n[nH]c(NCc4ccc(O)cc4)c3C(N)=O)cc2)c1` [reference compound], the Kd in experiment [1], in experiment [2] and in experiment [3] was less than 50 nM throughout. The “RCK:JAK2 selectivity ratio” value in experiment [2] is “C (C represents 1<Kd (JAK2): Kd (RCK)<10)”. In addition, the “RCK:JAK3 selectivity ratio” value in experiment [3] is reported as “B (B represents 10<Kd (JAK3): Kd (RCK)<100)”.
